Experimental data reported in PubChem BioAssay AID1361 (SRMLSC, 2008).
pIC50: −log10 of the molar value. Calls of active or inactive are those of the source. No rule for the calls is given here.

Experiment: blockers of mitochondrial fusion, WT vs mutant – cell-based, chemical genetic, wild-type and mutant, confirmation (AID 1361)
Conditions: Cell-based mitochondrial fusion phenotype, imaging
[1] = mutant cells, measured here: mutant cell line IC50

CC1CCN(C(C)C(=O)Nc2ccccc2-c2ccccc2)CC1 (stereo not given)
IC50 (WT cells): > 25 µM (inactive)
pIC50 [1]: < 4.60

Fc1ccc(-c2csc3ncnc(N4CCc5ccccc5C4)c23)cc1
pIC50 (WT cells): 5.03
pIC50 [1]: < 4.60

CC(c1ccccc1)N(CCC(c1ccccc1)C1CCOC(C)(C)C1)C(=O)c1ccco1 (stereo not given)
pIC50 (WT cells): 4.72
pIC50 [1]: < 4.60

CCC(=Nc1ccc(OC)cc1OC)c1c(O)n(C2CCCCC2)c(=O)[nH]c1=O
pIC50 (WT cells): 4.80
pIC50 [1]: < 4.60

Cc1ccc(Nc2nc(N)c([N+](=O)[O-])c(NCc3ccco3)n2)cc1C
pIC50 (WT cells): 4.81
pIC50 [1]: < 4.60

O=C(C1=C[C@H](c2csc3ccccc23)C[C@H](OCc2ccc(CO)cc2)O1)N1CCN(Cc2ccccc2)CC1
pIC50 (WT cells): 5.39
pIC50 [1]: 4.98

O=c1c2c3c(sc2nc(NCCO)n1CCc1ccccc1)CCCCC3
pIC50 (WT cells): 4.65
pIC50 [1]: < 4.60

COc1ccccc1NC(=O)CC1S/C(=N/N=C2\CCCc3ccccc32)NC1=O (stereo not given)
pIC50 (WT cells): 4.71
pIC50 [1]: < 4.60

CCCC(=O)NC(=S)Nc1cccc(Cl)c1N1CCCCC1
pIC50 (WT cells): 4.65
pIC50 [1]: < 4.60

Cc1ccccc1/C(N)=N/OC(=O)N1c2ccccc2Sc2ccccc21
pIC50 (WT cells): 4.78
pIC50 [1]: 4.66

O=C1CC(C(=O)NCc2ccccc2)C2(CCCC2)O1 (stereo not given)
IC50 (WT cells): > 25 µM (inactive)
pIC50 [1]: < 4.60

COC(=O)c1c(NC(=O)CN2CCC3(O)CCCCC3C2c2ccc(F)cc2)sc(C)c1C (stereo not given)
pIC50 (WT cells): 4.84
pIC50 [1]: < 4.60

O=S(=O)(NCC(Nc1ccc(Cl)cc1)c1ccccc1)c1ccccc1 (stereo not given)
pIC50 (WT cells): 4.86
pIC50 [1]: < 4.60

COc1cc(CNCCO)cc(Br)c1OCc1ccccc1Cl
IC50 (WT cells): > 25 µM (inactive)
pIC50 [1]: 4.62

CCC(C)c1ccccc1NC(=O)COC(=O)c1ccc2[nH]c3c(c2c1)CCCC3 (stereo not given)
pIC50 (WT cells): 5.00
pIC50 [1]: < 4.60

CCN(c1ccccc1)S(=O)(=O)c1cnc[nH]1
IC50 (WT cells): > 25 µM (inactive)
pIC50 [1]: < 4.60

CCCC1(CCC)NC(=O)N(CC(=O)Nc2cccc(OC)c2)C1=O
IC50 (WT cells): > 25 µM (inactive)
pIC50 [1]: < 4.60

Cc1cccc(OCC(=O)Nc2nc3ccc([N+](=O)[O-])cc3s2)c1C
IC50 (WT cells): > 25 µM (inactive)
pIC50 [1]: < 4.60

COc1ccc(NC(=O)CN(c2ccc(C)cc2)S(C)(=O)=O)c(OC)c1
IC50 (WT cells): > 25 µM (inactive)
pIC50 [1]: < 4.60

COc1ccc(NC(=O)c2csc(Cc3ccc(Cl)cc3)n2)cc1
pIC50 (WT cells): 4.80
pIC50 [1]: 4.61

O=C(NC1CCS(=O)(=O)C1)c1ccc(-c2ccc(Br)cc2)o1 (stereo not given)
IC50 (WT cells): > 25 µM (inactive)
pIC50 [1]: < 4.60

Cc1cccc(-c2nnc(SCc3ccccc3)o2)c1
IC50 (WT cells): > 25 µM (inactive)
pIC50 [1]: < 4.60

NC(=S)n1[nH]c(-c2ccc([N+](=O)[O-])cc2)c(N=Nc2ccc(Cl)cc2)c1=O
pIC50 (WT cells): 5.08
pIC50 [1]: < 4.60

COCCN(C(=S)Nc1cccc(C)c1)C(C)c1cccs1 (stereo not given)
pIC50 (WT cells): 4.62
pIC50 [1]: < 4.60

CC(C)(C)n1nnnc1C(c1cccs1)N1CCCC2(CCCCC2)C1 (stereo not given)
pIC50 (WT cells): 5.31
pIC50 [1]: < 4.60

COC(=O)CP(=O)(c1ccccc1)c1ccccc1
IC50 (WT cells): > 25 µM (inactive)
pIC50 [1]: < 4.60

CCSc1nnc(NC(=O)COc2ccc3ccccc3c2)s1
IC50 (WT cells): > 25 µM (inactive)
pIC50 [1]: < 4.60

C/C(=C\C(=O)c1ccccc1)Nc1cccc(O)c1
IC50 (WT cells): > 25 µM (inactive)
pIC50 [1]: < 4.60

O=C(COc1ccccc1[N+](=O)[O-])N/N=C/C=C/c1ccco1
IC50 (WT cells): > 25 µM (inactive)
pIC50 [1]: < 4.60

Cc1ccc(S(=O)(=O)NCc2ccco2)c(C)c1C
IC50 (WT cells): > 25 µM (inactive)
pIC50 [1]: < 4.60

COc1cccc(NC(=S)N(CCc2c(C)[nH]c3ccccc23)Cc2ccco2)c1
IC50 (WT cells): 15.6 µM (inactive)
pIC50 [1]: < 4.90

N#CC(c1ccc(Cl)cc1)(c1ncc(C(F)(F)F)cc1Cl)N1CCOCC1 (stereo not given)
IC50 (WT cells): > 25 µM (inactive)
pIC50 [1]: < 4.60

CC(C)C(c1nnnn1C(C)(C)C)N1CCC(Cc2ccccc2)CC1 (stereo not given)
pIC50 (WT cells): 4.92
pIC50 [1]: < 4.60

COC(=O)C1=C(O)/C(=C\c2ccc(CNC(=O)C(=O)Nc3ccc(C)cc3)o2)N=C1C
IC50 (WT cells): > 25 µM (inactive)
pIC50 [1]: < 4.60

CCn1cc(C(=O)NCCc2ccccc2)c(=O)c2cc(F)c(N3CCN(C)CC3)cc21
IC50 (WT cells): > 25 µM (inactive)
pIC50 [1]: < 4.60

CC(=O)Nc1cccc(Oc2ncnc3scc(-c4ccc(C(C)C)cc4)c23)c1
pIC50 (WT cells): 4.84
pIC50 [1]: < 4.60

O=[N+]([O-])c1ccc(Nc2c3ccccc3nc3ccccc23)cc1
pIC50 (WT cells): 4.90
pIC50 [1]: 4.74

O=C(CCc1ccccc1)NC(=S)Nc1cccc(Br)c1
pIC50 (WT cells): 4.86
pIC50 [1]: 4.67

c1ccc2c(c1)[nH]c1c(N3CCCC3)ncnc12
IC50 (WT cells): > 25 µM (inactive)
pIC50 [1]: < 4.60

COC(=O)CN1C(c2cccc(Cl)c2)=Nc2ccc(Cl)cc2C1c1ccccc1 (stereo not given)
pIC50 (WT cells): 5.11
pIC50 [1]: 4.62

COC(=O)c1c(N)n(Cc2ccc(OC)cc2)c2nc3ccccc3nc12
IC50 (WT cells): > 25 µM (inactive)
pIC50 [1]: < 4.60

CCOc1ccc(-c2[nH]ncc2Oc2ccccc2OCC)c(O)c1
IC50 (WT cells): > 25 µM (inactive)
pIC50 [1]: < 4.60

CCN(Cc1ccccc1)C(c1ccc(C(F)(F)F)cc1)c1nnnn1C(C)(C)C (stereo not given)
pIC50 (WT cells): 5.06
pIC50 [1]: < 4.60

FC(F)(F)c1cnc(N2CCC(=NOCc3ccc(Cl)cc3)CC2)c(Cl)c1
pIC50 (WT cells): 4.86
pIC50 [1]: < 4.60

O=c1cc2c(nn1Cc1ccc(Cl)cc1Cl)-c1ccccc1CC2
pIC50 (WT cells): 4.98
pIC50 [1]: 4.75

CC1CCC(C(C)C)C(OC(=O)COC(=O)c2ccccc2N)C1 (stereo not given)
pIC50 (WT cells): 4.75
pIC50 [1]: < 4.60

COc1ccc(-c2cn[nH]c2-c2ccc(OCc3ccc([N+](=O)[O-])cc3)cc2O)cc1
pIC50 (WT cells): 5.00
pIC50 [1]: < 4.60

CC(C)c1ccc(OCc2nc(-c3ccccn3)no2)c(Br)c1
pIC50 (WT cells): 4.81
pIC50 [1]: 4.68

Cc1cccc(Cn2nc(-n3cccc3)c3c(C)cc(C)nc32)c1
IC50 (WT cells): > 25 µM (inactive)
pIC50 [1]: < 4.60

CCn1c(O)c(C(c2ccccn2)c2c(O)n(CC)c(=S)[nH]c2=O)c(=O)[nH]c1=S
IC50 (WT cells): > 25 µM (inactive)
pIC50 [1]: < 4.60

CCCOc1ccc(-c2nc(C#N)c(N3CCC(C(N)=O)CC3)o2)cc1
IC50 (WT cells): > 25 µM (inactive)
pIC50 [1]: < 4.60

CCC(=O)Nc1ccc(N2CCN(CC)CC2)c(Cl)c1
IC50 (WT cells): > 25 µM (inactive)
pIC50 [1]: < 4.60

CCOC(=O)Cc1c(Sc2ccccc2)c2cc(C)ccc2n1C
pIC50 (WT cells): 4.91
pIC50 [1]: < 4.60

CC(C)CCNC(=O)CN(CC1CCCO1)C(=O)CCC(=O)Nc1ccccn1 (stereo not given)
IC50 (WT cells): > 25 µM (inactive)
pIC50 [1]: < 4.60

CC#C[C@]1(O)CC[C@H]2[C@@H]3CCC4=CC(=O)CCC4=C3[C@@H](c3ccc(N(C)C)cc3)C[C@@]21C
pIC50 (WT cells): 4.68
pIC50 [1]: < 4.60

O=C(c1ccc2c(c1)OCO2)N(Cc1cccs1)C1(C(=O)NC2CCCCC2)CCCCC1
IC50 (WT cells): > 25 µM (inactive)
pIC50 [1]: < 4.60

Cc1ccc(CNC(=O)CCNC(=O)c2ccco2)cc1
IC50 (WT cells): > 25 µM (inactive)
pIC50 [1]: < 4.60

CC1CC2=C(NC(=S)NC2c2cccc(F)c2)/C(=C/c2cccc(F)c2)C1 (stereo not given)
pIC50 (WT cells): 5.09
pIC50 [1]: < 4.60

CC1(C)C(=O)OC(c2cccn2-c2cccc([N+](=O)[O-])c2)C2(CCCCC2)C1=O (stereo not given)
pIC50 (WT cells): 5.04
pIC50 [1]: 4.95

COc1ccccc1N=Nc1nc(-c2ccccc2)c(-c2ccccc2)[nH]1
pIC50 (WT cells): 5.14
pIC50 [1]: 4.76
